# Experimental data reported in patent US20020082193A1, “Inhibition of mitochondrial calcium/sodium antiporter” (priority 2000, published 2002).
# Where two headings read alike, the source gives them in different places.
# Experiments:
# [1] = system: mitochondrial calcium/sodium antiporter (MCA) from beef heart mitochondria; test: Sodium-calcium exchange in proteoliposomes reconstituted with affinity isolated MCA; type: biochemical; conditions: 100 μM calcium chloride, FIG. 8
# Experimental: From a separate preparation of beef heart mitochondria, affinity isolation of the MCA was performed as just described, except that 1% CHAPS was substituted for 1% Triton X-100 in the initial solubilization, and following the column wash steps, retained components (including proteins bound to the affinity matrix) were eluted with 50 mM diltiazem. The column eluate containing proteins was incorporated into proteoliposomes essentially as described by Li et al (1992 J. Biol. Chem. 267: 17983-17989), using Calcium Green SN as the internal fluorescent probe (Molecular Probes, Eugene, OR), and calcium transport activity of the MCA was measured essentially as described by Li et al. (1992). Briefly, calcium chloride (100 μM) was added to a suspension of Calcium Green 5N-loaded proteoliposomes to initiate sodium-calcium exchange, which was measured as an increase in fluorescence as the calcium entered the vesicles that contained Calcium Green 5N. […] Data points in FIG. 8 represent average values at each concentration from two independent experiments.
# [2] = system: INS-1 rat insulinoma cells; test: Insulin secretion by INS-1 cells, basal or 8 mM glucose (radioimmunoassay); type: cell-based; conditions: 15, 30 or 60 minutes, FIG. 2
# Experimental: INS-1 rat insulinoma cells were provided by Prof. Claes Wollheim, , Geneva, Switzerland, and cultured at 37° C. in a humidified […] (Gibco BRL, Gaithersburg, Md.) fetal bovine serum (Irvine Scientific, Irvine, Calif.), 2 mM […], 100 U/ml streptomycin, 10 mM HEPES, 1 mM sodium pyruvate and 50 μM β-mercaptoethanol (all reagents Sigma, St. Louis, Mo., unless otherwise noted).
# INS-1 cells were seeded into 24-well plates containing RPMI media supplemented at 0.5×10^6 cells/well and cultured at 37° C., 5% CO2 for 2 days. Cells at or near confluence (0.7×10^6cells/well) were rinsed with glucose-free KRH buffer (134 mM NaCl, 4.7 mM KCl, 1.2 mM KH2PO4, 1.2 mM MgSO4, 1.0 mM CaCl2, 10 mM HEPES-ph 7.4, 25 mM NaHCO3, 0.5% BSA), then incubated in the same buffer for 1 hr at 37° C. in a humidified 5% CO2/95% air atmosphere. […] Insulin concentrations in the supernatants were measured and normalized to cell number using an insulin-specific radioimmunoassay kit (ICN Biochemicals, Irvine, Calif.) according to the manufacturer's instructions. […]
# [3] = system: pancreatic islets of Langerhans; test: Glucose-stimulated insulin secretion (GSIS) by isolated rat islets, insulin ELISA; type: cell-based, Sprague-Dawley rats; conditions: 1 μM compound
# Experimental: Pancreatic islets of Langerhans were isolated from adult male Sprague-Dawley rats using a standard collagenase infusion and digestion procedure as described in Example 5. Islets were cultured at 37° C. for 1-2 days in CMRL-1066 medium supplemented with 5.5 mM glucose, 10% fetal bovine serum, 100 U/ml penicillin and 100 μg/ml streptomycin, in a humidified atmosphere containing 5% CO2. Islets were manually picked and washed in Krebs Ringer Bicarbonate buffer (KRB: 134 mM NaCl, 4.7 mM KCl, 1.2 mM KH2PO4, 1.2 mM MgSO4, 1 mM CaCl2, 10 mM NaHCO3, pH 7.4) in preparation for measurement of glucose-stimulated insulin secretion (GSIS). Aliquots of washed islets were preincubated in oxygenated KRB supplemented with 16 mM HEPES, 0.01% fetal bovine serum and 5.5 mM glucose for 60 min at 37° C. […] Cell-conditioned media samples were then collected by centrifugation and their insulin content was determined using enzyme-linked immunosorbent assay (ELISA) kits (CrystalChem or ALPCO rat insulin ELISA) according to the kit supplier's instructions. Following treatment with a preferred compound, the concentration of insulin detected in the islet-conditioned medium was at least 1.5 times the insulin concentration detected in the medium conditioned by islets that were exposed to 8 mM glucose. […]
# [4] = system: rat pancreatic islet cells; test: Insulin secretion by rat pancreatic islet cells, 5 mM or 8 mM glucose (FIG. 3); type: cell-based; conditions: various concentrations
# [5] = target: T1, mitochondrial Na+/Ca2+ exchanger (Rattus norvegicus, UniProt Q6AXS0); test: Na+-induced Ca2+ release from rat heart mitochondria, Ca2+-selective electrode; type: biochemical; conditions: 20 μM compound
# T1 construct: Rat heart mitochondria were isolated using a modified differential centrifugation protocol; from tissue; host or cells: rat heart mitochondria
# T1 sequence (Q6AXS0 27-585): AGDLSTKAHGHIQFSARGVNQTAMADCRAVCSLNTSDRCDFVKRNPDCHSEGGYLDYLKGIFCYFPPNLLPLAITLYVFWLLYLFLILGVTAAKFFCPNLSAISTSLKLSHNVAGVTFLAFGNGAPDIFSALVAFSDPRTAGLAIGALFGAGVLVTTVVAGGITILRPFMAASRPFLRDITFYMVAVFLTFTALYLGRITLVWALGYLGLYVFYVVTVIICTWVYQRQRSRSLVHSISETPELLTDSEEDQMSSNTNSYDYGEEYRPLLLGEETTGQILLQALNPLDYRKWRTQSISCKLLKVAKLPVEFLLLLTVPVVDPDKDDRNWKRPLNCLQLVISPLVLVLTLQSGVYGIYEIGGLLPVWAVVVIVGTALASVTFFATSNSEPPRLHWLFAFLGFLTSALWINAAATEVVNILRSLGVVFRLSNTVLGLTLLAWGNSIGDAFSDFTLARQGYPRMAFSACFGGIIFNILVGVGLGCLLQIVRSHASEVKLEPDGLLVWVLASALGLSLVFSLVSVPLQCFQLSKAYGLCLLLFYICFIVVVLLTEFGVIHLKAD
# Experimental: (§1) Rat heart mitochondria were isolated using a modified differential centrifugation protocol essentially as described by Sordahl (Methods in Studying Cardiac Membranes (1984), pp 65-74). Experiments to assess effects on transmitochondrial membrane transport of calcium were carried out at 25° C. in a buffer consisting of 250 mM sucrose, 10 mM HEPES (pH 7.4), 5 mM Pi, 5 mM succinate, 1 μM rotenone, supplemented with 1 μM cyclosporine A to prevent interference from the Ca^2+-dependent permeability transition pore (PTP). Ca^2+ uptake and release were measured using a Ca^2+-selective electrode in a custom-constructed chamber additionally equipped for monitoring mitochondrial swelling via changes in light scattering (World Precision Instruments, Inc., Sarasota, Fla.). Alternatively, Ca^2+ fluxes were followed fluorometrically using the Calcium Green 5N™ indicator according to the supplier's recommendations (Molecular Probes, Eugene, Oreg.).
# (§2) Mitochondria (0.5 mg/ml) that were energized by the presence of succinate accumulated endogenous Ca^2+ from the medium (trace calcium from water source). Additional Ca^2+ (20 μM ) was added to the reaction buffer 2-3 minutes following commencement of measurements with the calcium electrode. […] No PTP activation (swelling) was detected under experimental conditions used.
# [6] = target: T1, mitochondrial Na+/Ca2+ exchanger; test: Na+-induced Ca2+ release from mitochondria, Calcium Green 5N fluorescence; type: biochemical
# Experimental: as §1, §2
# [7] = target: T2, mitochondrial calcium/sodium antiporter (Rattus norvegicus, UniProt Q6AXS0); test: Inhibition of mitochondrial calcium/sodium antiporter activity in digitonin-permeabilized INS-1 cells (calcium green 5N); type: cell-based
# T2 construct: endogenous in cells; host or cells: INS-1 rat insulinoma cells, digitonin-permeabilized
# T2 sequence (Q6AXS0 27-585): T1 sequence (Q6AXS0 27-585)
# Experimental: INS-1 rat insulinoma cells (see Example 3) were harvested by trypsinization, washed and resuspended at 10×10^6 cells/ml in assay buffer (250 mM sucrose, 10 mM HEPES, 2.5 mM K2HPO4, 5 mM succinate, pH 7.4) containing 0.007% digitonin, 60 μM CaCl2 and 0.05 μM calcium green 5N (Molecular Probes, Inc., Eugene, OR). After a five minute calcium loading incubation, ruthenium red (1 μM; Sigma, St. Louis, MO) was added to block further calcium uptake by mitochondria. Cell suspensions were dispensed into 96-well plates (100 μl per well, 1×10^6 cells per well) and candidate agents (i.e., candidate mitochondrial calcium/sodium antiporter inhibitors) were added to some sets of triplicate wells at concentrations of 1, 10 or 100 μM, while other sets of wells provided appropriate control conditions (e.g., buffer and vehicle controls). Baseline fluorescence measurements were made using a multiwell plate fluorimeter (F-MAX™, Molecular Devices Corp., Sunnyvale, Calif.; or PolarStar , BMG Labtechnologies, Inc., Durham, N.C.) according to the manufacturer's instructions. Calcium efflux from mitochondria was then induced by adding NaCl to all wells to achieve a final concentration of 20 mM, and the rate of change in fluorescence in each well was monitored was monitored for two minutes and quantified using software included with the plate reader.
smiles,measurement,setting,value
"O=C1CSC(c2ccccc2Cl)c2cc(Cl)ccc2N1 (stereo not drawn) [Compound No. 1, 7-chloro-5-(2-chlorophenyl)-1,5-dihydro-4,1-benzothiazepin-2-one]",inhibition of sodium-calcium exchange activity,[1],inhibited in a dose-dependent fashion
same,glucose stimulated insulin secretion by INS-1 cells,[2],enhanced
same,stimulation of GSIS relative to GSIS detected with 8 mM glucose,[3],222 (±48) %
same,glucose stimulated insulin secretion by rat islets,[4],enhancement
same,inhibition at 20 µM,[5],~50%
same,inhibition of Na+-induced rapid Ca2+ release,[5]; FIG. 4,inhibited completely
O=C(O)CN1C(=O)CSC(c2ccccc2Cl)c2cc(Cl)ccc21 (stereo not drawn) [Compound No. 2],concentrations at which inhibition was observed,[6],≥ 100 µM
O=C1C[S+]([O-])C(c2ccccc2Cl)c2cc(Cl)ccc2N1 (stereo not drawn) [Compound No. 24],IC50,"[7]; permeabilized INS-1 cells, 20 mM NaCl-induced calcium efflux, read-out: IC50, MCA inhibition",< 100 µM
same,stimulation of GSIS relative to GSIS detected with 8 mM glucose,[3],178%
Cc1ccccc1C1OCC(=O)Nc2ccc(Cl)cc21 (stereo not drawn) [compound 10],IC50,[7],< 100 µM
Cc1ccc(C2SCC(=O)Nc3ccc(Cl)cc32)c(C)c1 (stereo not drawn) [compound 21],IC50,[7],< 100 µM
O=C1CSC(c2ccccc2Cl)c2ccccc2N1 (stereo not drawn) [compound 23],IC50,[7],< 100 µM
